# Data published in US12371430B2, “5-morpholin-4-yl-pyrazolo[4,3-b]pyridine derivatives” (Merck Patent GmbH, priority 2018, dated 2025).
# Assays:
# ATR/ATRIP = ATR/ATRIP (Homo sapiens (Human), UniProt Q13535); assay: ATR/ATRIP kinase assay (TR-FRET, p53 Ser15 phosphorylation); format: biochemical; conditions: 0.5 μM ATP, 50 nM p53
# Method: ATR/ATRIP Kinase Assay—Measurement of ATR/ATRIP Inhibition
# The IC50 value was determined by an ATR/ATRIP enzymatic assay. The assay comprises two steps: the enzymatic reaction and the detection step. First, a mixture of ATR/ATRIP protein (Ataxia Telangiectasia and Rad3-related protein/ATR interacting protein), the compound in question at different concentrations, p53 as substrate protein and adenosine triphosphate (ATP) are incubated in assay buffer. ATR phosporylates p53 at Ser15 and other residues. The amount of phosphorylated p53 is then detected using specific antibodies and the TR-FRET assay technology.
# In detail: The ATR/ATRIP enzymatic assay is performed as a TR-FRET-(HTRF™, Cisbio Bioassays) based 384-well assay. In a first step, purified human recombinant ATR/ATRIP (human ATR, full length, GenBank ID: NM_001184.3, and human ATRIP, full length, GenBank ID AF451323.1, co-expressed in a mammalian cell line) is incubated in assay buffer for 15 minutes at 22° C. with test compound at different concentrations or without test compound (as a negative control). The assay buffer contains 25 mM HEPES pH 8.0, 10 mM Mg(CH3COO)2, 1 mM MnCl2, 0.1% BSA, 0.01% Brij® 35, and 5 mM dithiothreitol (DTT). An Echo 555 (Labcyte) is used for dispensing of compound solutions. Then, in a second step, purified human recombinant cmyc-tagged p53 (human p53, full length, GenBank ID: BC003596, expressed in Sf21 insect cells) and ATP are added and the reaction mixture is incubated for 25-35 minutes, typically 25 minutes, at 22° C. The pharmacologically relevant assay volume is 5 μl. The final concentrations in the assay during incubation of the reaction mixture are 0.3-0.5 nM, typically 0.3 nM, ATR/ATRIP, 50 nM p53, and 0.5 μM ATP. The enzymatic reaction is stopped by the addition of EDTA. The generation of phosphorylated p53 as a result of the ATR mediated reaction in the presence of ATP is detected by using specific antibodies [labeled with the fluorophores europium (Eu) as donor and d2 as acceptor (Cisbio Bioassays)] enabling FRET. For this purpose, 2 μl of antibody-containing stop solution (12.5 mM HEPES pH 8.0, 125 mM EDTA, 30 mM sodium chloride, 300 mM potassium fluoride, 0.006% Tween-20, 0.005% Brij® 35, 0.21 nM anti-phospho-p53(Ser15)-Eu antibody, 15 nM anti-cmyc-d2 antibody) are added to the reaction mixture. Following signal development for 2 h the plates are analyzed in an EnVision (PerkinElmer) microplate reader using the TRF mode with laser excitation. Upon excitation of the donor europium at 340 nm the emitted fluorescence light of the acceptor d2 at 665 nm as well as from the donor Eu at 615 nm are measured. The amount of phosphorylated p53 is directly proportional to the ratio of the amounts of emitted light i.e. the ratio of the relative fluorescence units (rfu) at 665 nm and 615 nm. Data are processed employing the Genedata Screener software. In particular, IC50 values are determined in the usual manner by fitting a dose-response curve to the data points using nonlinear regression analysis. • IC50=half maximal inhibitory concentration • ATP=Adenosine triphosphate • TR-FRET=Time-Resolved Fluorescence Resonance Energy Transfer • HTRF®=Homogeneous Time Resolved Fluorescence • HEPES=2-(4-(2-Hydroxyethyl)-1-piperazinyl)-ethanesulfonic acid • Mg(CH3COO)2=Magnesium acetate • MnCl2=Manganese(II)-chloride • BSA=Bovine Serum Albumin • EDTA=Ethylendiamine Tetraacetate • TRF=Time Resolved Fluorescence pCHK1 Cellular Assay
# [1] = system: phosphorylation of Chk1 (Ser 345) in HT29 colon adenocarcinoma cells; assay: pCHK1 cellular assay; format: cell-based; conditions: Homo sapiens, HT-29, hydroxyurea 3 mM, 4 h
# Excerpt: Chk1 kinase acts downstream of ATR and has a key role in DNA damage checkpoint control. Activation of Chk1 involves phosphorylation of Ser317 and Ser345 (regarded as the preferential target for phosphorylation/activation by ATR) and occurs in response to blocked DNA replication and certain forms of genotoxic stress. Phosphorylation at Ser 345 serves to localize Chk1 to the nucleus following checkpoint activation.
# This assay measures a decrease in phosphorylation of Chk1 (Ser 345) in HT29 colon adenocarcinoma cells following treatment with compound and hydroxyurea (which promotes fork stalling because of dNTP depletion) and using an immunocytochemical procedure and high content imaging.
# For the assay HT29 cells are plated in culture medium (DMEM high Glucose (no phenol red), 2 mM Glutamax, 1 mM Pyruvate, 10% FCS into Greiner 384 well plates, black, μclear #781090 (2500 cells/well/30 μl) and incubated for at least 20 hours at 37° C., 10% CO2 and 90% rH. Diluted test compounds (1 nM-30 μM final) and hydroxyurea (3 mM final) are added simultaneously and cells are incubated for 4 h at 37° C. After fixation/prmeabilisation with 100% MeOH (−20° C. cold) and permeabilisation with 0.2% Triton X-100 a complete immunocytochemical procedure is performed using a specific anti-pChk1 antibody (Cell Signaling, #2348BF) and fluorescently labelled secondary antibody (Alexa Fluor® 488 goat anti-rabbit F(ab′)2 fragment, Invitrogen A11070) and parallel nuclear staining for cell counting.
# The nuclear localised pChk1 signal is detected on an ImageXpress Ultra confocal high content reader and reported as % positive cells (nuclei).
# Chain of ATR/ATRIP (Q13535 whole entry): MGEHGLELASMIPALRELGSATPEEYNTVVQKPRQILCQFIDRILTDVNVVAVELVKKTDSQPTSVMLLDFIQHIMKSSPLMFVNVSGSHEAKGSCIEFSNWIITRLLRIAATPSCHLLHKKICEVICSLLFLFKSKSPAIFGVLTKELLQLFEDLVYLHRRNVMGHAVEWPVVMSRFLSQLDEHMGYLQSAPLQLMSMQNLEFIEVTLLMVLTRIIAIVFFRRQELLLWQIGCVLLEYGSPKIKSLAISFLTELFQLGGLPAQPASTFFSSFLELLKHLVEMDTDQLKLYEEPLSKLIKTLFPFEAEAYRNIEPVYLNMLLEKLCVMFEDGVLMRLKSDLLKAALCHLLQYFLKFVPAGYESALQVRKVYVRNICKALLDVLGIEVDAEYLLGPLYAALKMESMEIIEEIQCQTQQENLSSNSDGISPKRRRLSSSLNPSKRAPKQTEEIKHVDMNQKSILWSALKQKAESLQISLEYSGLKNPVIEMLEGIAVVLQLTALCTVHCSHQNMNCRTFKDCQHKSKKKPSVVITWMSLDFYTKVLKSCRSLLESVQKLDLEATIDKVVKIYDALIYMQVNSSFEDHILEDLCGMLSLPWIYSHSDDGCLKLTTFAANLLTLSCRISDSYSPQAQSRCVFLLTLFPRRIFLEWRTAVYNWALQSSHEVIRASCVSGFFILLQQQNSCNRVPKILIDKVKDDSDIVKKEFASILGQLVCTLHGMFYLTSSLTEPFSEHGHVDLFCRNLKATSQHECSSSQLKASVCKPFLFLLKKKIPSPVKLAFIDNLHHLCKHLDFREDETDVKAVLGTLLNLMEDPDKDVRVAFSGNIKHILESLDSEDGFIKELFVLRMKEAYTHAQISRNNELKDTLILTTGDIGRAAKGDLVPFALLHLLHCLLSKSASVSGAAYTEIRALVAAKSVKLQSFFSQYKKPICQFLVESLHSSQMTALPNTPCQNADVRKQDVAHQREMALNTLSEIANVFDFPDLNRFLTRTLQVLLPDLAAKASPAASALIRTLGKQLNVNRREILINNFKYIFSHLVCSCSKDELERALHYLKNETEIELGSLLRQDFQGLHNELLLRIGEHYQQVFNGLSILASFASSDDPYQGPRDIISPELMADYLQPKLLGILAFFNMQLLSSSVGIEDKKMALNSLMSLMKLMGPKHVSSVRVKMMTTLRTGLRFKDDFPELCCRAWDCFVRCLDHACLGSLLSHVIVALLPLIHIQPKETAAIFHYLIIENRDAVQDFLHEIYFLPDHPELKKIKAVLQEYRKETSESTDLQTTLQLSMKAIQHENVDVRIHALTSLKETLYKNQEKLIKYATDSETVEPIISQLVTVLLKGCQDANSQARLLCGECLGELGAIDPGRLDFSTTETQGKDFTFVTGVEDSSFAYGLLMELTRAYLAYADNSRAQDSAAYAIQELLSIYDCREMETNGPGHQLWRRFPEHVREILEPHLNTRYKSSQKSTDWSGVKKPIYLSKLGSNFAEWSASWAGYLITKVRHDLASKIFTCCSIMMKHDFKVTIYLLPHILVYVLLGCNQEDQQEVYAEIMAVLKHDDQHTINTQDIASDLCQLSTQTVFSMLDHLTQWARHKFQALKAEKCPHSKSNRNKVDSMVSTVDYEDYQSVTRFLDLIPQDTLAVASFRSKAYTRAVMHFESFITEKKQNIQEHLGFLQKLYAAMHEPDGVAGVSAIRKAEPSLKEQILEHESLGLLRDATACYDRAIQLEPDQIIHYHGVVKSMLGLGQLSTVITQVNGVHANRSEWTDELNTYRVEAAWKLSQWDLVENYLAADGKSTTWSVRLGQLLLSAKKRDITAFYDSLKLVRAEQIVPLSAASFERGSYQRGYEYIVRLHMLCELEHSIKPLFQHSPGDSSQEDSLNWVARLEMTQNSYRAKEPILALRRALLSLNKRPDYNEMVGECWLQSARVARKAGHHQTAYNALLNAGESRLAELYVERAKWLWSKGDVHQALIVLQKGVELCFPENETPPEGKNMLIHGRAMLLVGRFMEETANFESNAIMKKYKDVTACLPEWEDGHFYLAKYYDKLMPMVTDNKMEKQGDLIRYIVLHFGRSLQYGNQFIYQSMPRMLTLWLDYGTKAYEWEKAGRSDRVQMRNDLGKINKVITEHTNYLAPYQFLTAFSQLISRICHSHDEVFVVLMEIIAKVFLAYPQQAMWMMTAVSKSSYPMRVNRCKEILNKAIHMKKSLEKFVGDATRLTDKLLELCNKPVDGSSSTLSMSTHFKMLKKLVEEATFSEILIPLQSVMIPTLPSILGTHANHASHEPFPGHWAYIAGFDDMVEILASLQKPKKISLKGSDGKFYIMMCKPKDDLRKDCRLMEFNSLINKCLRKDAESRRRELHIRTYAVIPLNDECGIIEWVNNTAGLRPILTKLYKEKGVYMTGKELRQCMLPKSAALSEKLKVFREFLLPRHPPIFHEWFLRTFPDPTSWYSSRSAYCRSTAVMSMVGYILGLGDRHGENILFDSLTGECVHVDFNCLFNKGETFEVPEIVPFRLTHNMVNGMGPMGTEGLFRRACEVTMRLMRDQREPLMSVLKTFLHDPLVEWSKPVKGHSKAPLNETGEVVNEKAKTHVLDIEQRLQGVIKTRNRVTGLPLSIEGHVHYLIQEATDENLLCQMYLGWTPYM
# Chain of ATR/ATRIP (Q8WXE1 whole entry partner): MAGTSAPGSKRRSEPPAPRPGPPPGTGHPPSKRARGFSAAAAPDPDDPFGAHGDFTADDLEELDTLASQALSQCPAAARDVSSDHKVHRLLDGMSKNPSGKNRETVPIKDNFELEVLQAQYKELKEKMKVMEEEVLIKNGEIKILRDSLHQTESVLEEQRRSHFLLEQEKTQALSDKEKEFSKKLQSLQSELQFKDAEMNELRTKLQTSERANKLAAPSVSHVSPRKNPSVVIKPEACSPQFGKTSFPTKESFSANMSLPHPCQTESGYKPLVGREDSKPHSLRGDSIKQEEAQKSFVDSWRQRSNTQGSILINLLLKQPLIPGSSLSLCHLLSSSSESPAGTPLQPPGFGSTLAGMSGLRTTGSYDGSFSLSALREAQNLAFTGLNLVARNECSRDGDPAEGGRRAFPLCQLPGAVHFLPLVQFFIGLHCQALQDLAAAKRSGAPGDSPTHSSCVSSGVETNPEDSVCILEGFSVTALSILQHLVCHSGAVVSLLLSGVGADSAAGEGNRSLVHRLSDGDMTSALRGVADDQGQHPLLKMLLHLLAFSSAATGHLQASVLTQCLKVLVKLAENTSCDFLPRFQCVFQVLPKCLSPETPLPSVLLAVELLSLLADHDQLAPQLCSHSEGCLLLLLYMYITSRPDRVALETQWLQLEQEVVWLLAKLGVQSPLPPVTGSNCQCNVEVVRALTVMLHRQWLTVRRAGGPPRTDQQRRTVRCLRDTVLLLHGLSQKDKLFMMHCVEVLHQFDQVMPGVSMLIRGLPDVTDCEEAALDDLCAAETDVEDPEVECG
structure (smiles),measurement,setting,value
"C[C@@H]1COCCN1c1cc(-c2cccnc2C(F)(F)F)c2c(n1)c(-c1cc[nH]n1)nn2C [Compound 66, (3R)-3-Methyl-4-[1-methyl-3-(1H-pyrazol-3-yl)-7-[2-(trifluoro-methyl)pyridin-3-yl]-1H-pyrazolo[4,3-b]pyridin-5-yl]morpholine]",IC50,ATR/ATRIP,1.9 nM
same,IC50,[1],< 10 nM
"CNC(=O)c1cc(N2CCOC[C@H]2C)nc2c(-c3cc[nH]n3)n[nH]c12 [Compound 28, 5-((R)-3-Methyl-morpholin-4-yl)-3-(1H-pyrazol-3-yl)-1H-pyrazolo[4,3-b]pyridine-7-carboxylic acid methylamide]",IC50,ATR/ATRIP,5.3 nM
same,IC50,[1],100 to 1000 nM
"C[C@@H]1COCCN1c1ccc2c(n1)c(-c1cc[nH]n1)nn2-c1ccc(C#N)cc1 [Compound 60, 4-[5-[(3R)-3-Methylmorpholin-4-yl]-3-(1H-pyrazol-3-yl)-1H-pyrazolo[4,3-b]pyridin-1-yl]benzonitrile]",IC50,ATR/ATRIP,32 nM
same,IC50,[1],1000 to 10000 nM
"Cc1cccnc1-c1cc(N2CCOC[C@H]2C)nc2c(-c3cc[nH]n3)nn(C)c12 [Compound 62, (3R)-3-Methyl-4-[1-methyl-7-(3-methylpyridin-2-yl)-3-(1H-pyrazol-3-yl)-1H-pyrazolo[4,3-b]pyridin-5-yl]morpholine]",IC50,ATR/ATRIP,22 nM
same,IC50,[1],1000 to 10000 nM
"C[C@@H]1COCCN1c1ccc2c(n1)c(-c1cc[nH]n1)nn2-c1cccc(S(C)(=O)=O)c1 [Compound 47, 1-(3-Methanesulfonyl-phenyl)-5-((R)-3-methyl-morpholin-4-yl)-3-(1H-pyrazol-3-yl)-1H-pyrazolo[4,3-b]pyridine]",IC50,ATR/ATRIP,89 nM
same,IC50,[1],1000 to 10000 nM
"Cc1cc(-c2n[nH]c3c(-c4ccc(S(C)(=O)=O)nc4C)cc(N4CCOC[C@H]4C)nc23)[nH]n1 [Compound 13, (3R)-4-[7-(6-Methanesulfonyl-2-methylpyridin-3-yl)-3-(3-methyl-1H-pyrazol-5-yl)-1H-pyrazolo[4,3-b]pyridin-5-yl]-3-methylmorpholine]",IC50,ATR/ATRIP,1.4 nM
same,IC50,[1],100 to 1000 nM
"Cc1nc([S@@+](C)[O-])ccc1-c1cc(N2CCOC[C@H]2C)nc2c(-c3cc[nH]n3)nn(C)c12 [Compound 10, (3R)-4-(7-{6-[(R)-Methanesulfinyl]-2-methylpyridin-3-yl}-1-methyl-3-(1H-pyrazol-3-yl)-1H-pyrazolo[4,3-b]pyridin-5-yl)-3-methylmorpholine]",IC50,ATR/ATRIP,1.9 nM
same,IC50,[1],10 to 100 nM
"C[C@@H]1COCCN1c1cc(-c2ccccn2)c2c(n1)c(-c1cc[nH]n1)nn2C [Compound 58, (3R)-3-Methyl-4-[1-methyl-3-(1H-pyrazol-3-yl)-7-(pyridin-2-yl)-1H-pyrazolo[4,3-b]pyridin-5-yl]morpholine]",IC50,ATR/ATRIP,10 nM
same,IC50,[1],100 to 1000 nM
"C[C@@H]1COCCN1c1cc(C2=CCS(=O)(=O)CC2)c2c(n1)c(-c1ccn[nH]1)nn2C [Compound 81, 4-[1-Methyl-5-[(3R)-3-methylmorpholin-4-yl]-3-(1H-pyrazol-5-yl)-1H-pyrazolo[4,3-b]pyridin-7-yl]-3,6-dihydro-2H-1lambda6-thiopyran-1,1-dione]",IC50,ATR/ATRIP,3 nM
same,IC50,[1],100 to 1000 nM
"C[C@@H]1COCCN1c1cc(-c2cccc(S(C)(=O)=O)c2)c2c(n1)c(-c1ccn[nH]1)nn2C [Compound 76, (3R)-4-[7-(3-Methanesulfonylphenyl)-1-methyl-3-(1H-pyrazol-5-yl)-1H-pyrazolo[4,3-b]pyridin-5-yl]-3-methylmorpholine]",IC50,ATR/ATRIP,28 nM
same,IC50,[1],100 to 1000 nM
"C[C@@H]1COCCN1c1cc(-c2ccn(CCO)n2)c2c(n1)c(-c1cc[nH]n1)nn2C [Compound 37, 2-{3-[1-Methyl-5-((R)-3-methyl-morpholin-4-yl)-3-(1H-pyrazol-3-yl)-1H-pyrazolo[4,3-b]pyridin-7-yl]-pyrazol-1-yl}-ethanol]",IC50,ATR/ATRIP,7.9 nM
same,IC50,[1],100 to 1000 nM
"C[C@@H]1COCCN1c1cc(C(=O)N(C)C)c2c(n1)c(-c1cc[nH]n1)nn2C [Compound 30, 1-Methyl-5-((R)-3-methyl-morpholin-4-yl)-3-(1H-pyrazol-3-yl)-1H-pyrazolo[4,3-b]pyridine-7-carboxylic acid dimethylamide]",IC50,ATR/ATRIP,15 nM
same,IC50,[1],100 to 1000 nM
"C[C@@H]1COCCN1c1cc(-c2ccc(CO)cc2)c2c(n1)c(-c1cc[nH]n1)nn2C [Compound 52, (4-{1-Methyl-5-[(3R)-3-methylmorpholin-4-yl]-3-(1H-pyrazol-3-yl)-1H-pyrazolo[4,3-b]pyridin-7-yl}phenyl)methanol]",IC50,ATR/ATRIP,1.4 nM
same,IC50,[1],10 to 100 nM
"C[C@@H]1COCCN1c1cc(-c2ccc(C(F)(F)F)nc2)c2c(n1)c(-c1cc[nH]n1)nn2C [Compound 65, (3R)-3-Methyl-4-[1-methyl-3-(1H-pyrazol-3-yl)-7-[6-(trifluoro-methyl)pyridin-3-yl]-1H-pyrazolo[4,3-b]pyridin-5-yl]morpholine]",IC50,ATR/ATRIP,5.8 nM
same,IC50,[1],100 to 1000 nM
"Cc1ccc(-c2cc(N3CCOC[C@H]3C)nc3c(-c4cc(C)n[nH]4)n[nH]c23)cn1 [Compound 3, (3R)-3-Methyl-4-[3-(3-methyl-1H-pyrazol-5-yl)-7-(6-methylpyridin-3-yl)-1H-pyrazolo[4,3-b]pyridin-5-yl]morpholine]",IC50,ATR/ATRIP,0.9 nM
same,IC50,[1],10 to 100 nM
"CNC(=O)c1cc(N2CCOC[C@H]2C)nc2c(-c3cc[nH]n3)nn(C)c12 [Compound 31, 1-Methyl-5-((R)-3-methyl-morpholin-4-yl)-3-(1H-pyrazol-3-yl)-1H-pyrazolo[4,3-b]pyridine-7-carboxylic acid methylamide]",IC50,ATR/ATRIP,33 nM
same,IC50,[1],100 to 1000 nM
"C[C@@H]1COCCN1c1cc(C(=O)N(C)C)c2[nH]nc(-c3cc[nH]n3)c2n1 [Compound 27, 5-((R)-3-Methyl-morpholin-4-yl)-3-(1H-pyrazol-3-yl)-1H-pyrazolo[4,3-b]pyridine-7-carboxylic acid dimethylamide]",IC50,ATR/ATRIP,10 nM
same,IC50,[1],100 to 1000 nM
"CC(C)n1nc(-c2cc[nH]n2)c2nc(N3CCOC[C@H]3C)ccc21 [Compound 73, (3R)-3-Methyl-4-[1-(propan-2-yl)-3-(1H-pyrazol-3-yl)-1H-pyrazolo[4,3-b]pyridin-5-yl]morpholine]",IC50,ATR/ATRIP,28 nM
same,IC50,[1],100 to 1000 nM
"C[C@@H]1COCCN1c1ccc2c(n1)c(-c1cc[nH]n1)nn2Cc1cccc(S(C)(=O)=O)c1 [Compound 57, (3R)-4-{1-[(3-Methanesulfonylphenyl)methyl]-3-(1H-pyrazol-3-yl)-1H-pyrazolo[4,3-b]pyridin-5-yl}-3-methylmorpholine]",IC50,ATR/ATRIP,150 nM
same,IC50,[1],1000 to 10000 nM
